pIC50: −log10 of the molar value.

The test deals with IRE1α (Homo sapiens (Human), UniProt O75460, D688N). The test is described as follows: IRE1α TR-FRET competition binding assay (IRE1α HTRF). To be noted: TR-FRET competition binding to kinase domain of IRE1α. In a few lines: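 Kinase domain (0.25 nM) pre-bound to 2 nM Eu anti-His antibody for 1 h at 4° C in HEPES pH 7.5/MgCl2/Brij 35/DTT/gamma globulin buffer, then mixed with compounds and 2 nM Alexa 647 ATP-competitive probe. 1 h at room temperature; probe displacement read as TR-FRET (Ex 347 nm, Em 665/615 nm).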
Sequence of IRE1α (O75460 547-977 D688N): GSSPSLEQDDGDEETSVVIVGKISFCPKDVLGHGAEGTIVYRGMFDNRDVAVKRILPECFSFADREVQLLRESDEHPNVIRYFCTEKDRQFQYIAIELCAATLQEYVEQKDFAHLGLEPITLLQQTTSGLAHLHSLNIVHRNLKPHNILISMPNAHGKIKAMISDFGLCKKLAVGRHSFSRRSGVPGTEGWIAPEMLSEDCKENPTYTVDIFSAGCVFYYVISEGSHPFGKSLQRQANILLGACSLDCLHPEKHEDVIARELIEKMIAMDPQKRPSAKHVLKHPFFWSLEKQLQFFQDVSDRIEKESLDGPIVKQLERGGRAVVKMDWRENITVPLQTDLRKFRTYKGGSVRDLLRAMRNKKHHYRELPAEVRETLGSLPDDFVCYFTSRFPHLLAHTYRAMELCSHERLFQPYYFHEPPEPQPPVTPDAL
Background: TR-FRET usually uses a lanthanide donor and a delayed reading to cut background.
Usually pIC50 stands for the IC50 on a negative log10 scale, so that one unit is a factor of ten. Read a high pIC50 as a low IC50. For the compound `CC(C)n1c(=O)c(-c2ccc(NS(=O)(=O)C3CC4CCC3C4)c(F)c2)nc2cnc(N[C@H]3CC[C@H](N(C)C)CC3)nc21` (stereo partly drawn) [Example 281, N-(4-(2-(((1r, 4r)-4-(dimethylamino)cyclohexyl)amino)-8-isopropyl-7-oxo-7,8-dihydropteridin-6-yl)-2-fluorophenyl)bicyclo[2.2.1]heptane-2-sulfonamide], the negative-log IC50 (pIC50) is 9.30.

As to “N-(2,3,6-trifluoro-4-(8-isopropyl-2-((4-((2-methoxyethyl)(methyl)amino)cyclohexyl)amino)-7-oxo-7,8-dihydropyrido[2,3-d]pyrimidin-6-yl)phenyl)propane-1-sulfonamide [Compound 101A]”, the pIC50 was 9.46.

“N-(2,3,6-trifluoro-4-(8-isopropyl-2-((4-((2-methoxyethyl)(methyl)amino)cyclohexyl)amino)-7-oxo-7,8-dihydropyrido[2,3-d]pyrimidin-6-yl)phenyl)propane-1-sulfonamide [Compound 101B]”: the pIC50 was 6.92.

For the origin of these results see patent publication US12344603B2 (Genentech, Inc., priority 2020, dated 2025).
